Earlier results on one compound are cited in patent US12648940B2, “Bupivacaine liquid formulations” (FRESENIUS KABI AUSTRIA GMBH, priority 2023, dated 2026).

Each structure is given as a SMILES string.

With `CCCCN1CCCCC1C(=O)Nc1c(C)cccc1C` (centres unmarked) [Bupivacaine, 1-butyl-N-(2,6-dimethylphenyl)piperidine-2-carboxamide], the pKa entry was “approximately 8.1”. For the same compound, where the note is “at 25° C.”, the “pKa of the amine of the piperidine group” value is roughly 8.1.
